pIC50: −log10 of the molar value. “Also recorded” adds a separate entry of the source.
Assays:
[1] = target: human full-length MKNK1 (Homo sapiens (Human), UniProt Q9BUB5, T344D); assay: MKNK1 kinase high ATP assay (TR-FRET); format: biochemical; conditions: high ATP (2 mM), 15 min preincubation with enzyme; read-out: MKNK1 IC50
Outline: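 GST-tagged full-length MKNK1 (aa 1–424, T344D; insect-cell expressed) preincubated 15 min with compound, then reacted 30 min at 22 °C with 2 mM ATP and 0.06 μM biotinylated peptide (final) in HEPES pH 7.5 buffer. Phosphopeptide detected by TR-FRET 665/620 ratio, normalized to no-inhibitor and no-enzyme controls.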

[2] = tested on: secretion of TNF-α in human PBMCs; assay: In vitro IL-1β-induced cytokine (TNF-α) secretion of human PBMCs; format: cell-based; conditions: for pIC50: PBMC, human PBMCs stimulated with 20 ng/ml IL-1β for 24 hours
Excerpt: In Vitro IL-1β (Interleukin-1 beta, IL-1b)-Induced Cytokine Secretion of Human PBMCs (Peripheral Blood Mononuclear Cells)
The effect of the chemical compounds on the induced cytokine secretion of human PBMCs has been investigated. Here, the cytokine secretion has been induced by IL-1β which binding to its receptors leads to the activation of the MKNK signaling pathway.
(§1) Human PBMCs have been isolated from anti-coagulated human whole blood donated from healthy volunteers by pre-filling Leucosep tubes with ficoll-paque (15 ml, Biochrom, order ID: L6115) and adding 20 ml whole blood. After centrifugation of the blood at 800 g for 15 min at room temperature (RT) plasma including thrombocytes has been discarded. PBMCs were transferred to a new falcon tube, washed with PBS (phosphate-buffered saline) at 250 g for 10 min at RT and resuspended in complete medium [RPMI 1640, without L-glutamine (PAA, order ID: E15-039), 10% FCS; 50 U/ml Penicillin, 50 μg/ml Streptomycin (PAA, order ID: P11-010) and 1% L-glutamine (Sigma, order ID. G7513)]. The assay was performed in a 96-well plate at a cell density of 2.5×10^5 cells/well as triplicates. The compounds were serially diluted in DMSO and added to the PBMCs at a range of 3×10^−9 M to 1×10^−5M with a final concentration of 0.4% DMSO, respectively. Treatment of PBMCs with 0.4% DMSO was used as control. After 30 min of incubation, PBMCs were stimulated with 20 ng/ml IL-1β (R&D, order ID: 201-LB CF) for 24 hours. Cell viability was measured using the CellTiter-Glo Luminescent Assay (Promega, order ID: G7571) following the manufacturers protocol. The amount of secreted TNF-α (tumor necrosis factor-alpha) in the supernatant was determined using the Human Prolnflammatory 9-Plex (MSD, order ID: K15007B) according to manufacturer's instruction. The inhibitory activity was determined as the relation to the control in percent. IC50 values were calculated using the 4-parameter logistic model.

[3] = tested on: human peripheral blood mononuclear cells; assay: Cell viability of human PBMCs (CellTiter-Glo Luminescent Assay); format: cell-based; conditions: IL-1β stimulated, 24 hours
Procedure: as §1, with “The compounds were serially diluted in DMSO and added to the PBMCs at a range of 3×10^−9 M to 1×10^−5M with a final concentration of 0.4% DMSO, respectively. Treatment of PBMCs with 0.4% DMSO was used as control. After 30 min of incubation, PBMCs were stimulated with 20 ng/ml IL-1β (R&D, order ID: 201-LB CF) for 24 hours.” left out

human full-length MKNK1, sequence (Q9BUB5 other isoform, or with tags, fused parts or gaps T344D): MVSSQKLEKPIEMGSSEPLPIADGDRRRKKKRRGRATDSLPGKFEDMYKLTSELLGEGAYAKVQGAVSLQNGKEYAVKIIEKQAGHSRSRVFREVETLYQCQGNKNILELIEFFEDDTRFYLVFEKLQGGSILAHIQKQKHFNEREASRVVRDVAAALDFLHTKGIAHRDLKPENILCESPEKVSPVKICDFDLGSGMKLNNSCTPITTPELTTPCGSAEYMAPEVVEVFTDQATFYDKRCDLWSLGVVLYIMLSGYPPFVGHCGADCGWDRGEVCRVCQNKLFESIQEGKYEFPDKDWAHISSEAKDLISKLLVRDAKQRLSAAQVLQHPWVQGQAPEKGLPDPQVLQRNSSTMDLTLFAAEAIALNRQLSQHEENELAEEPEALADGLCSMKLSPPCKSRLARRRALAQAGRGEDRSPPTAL

Row | Compound | pIC50 [1] | pIC50 [2] | inhibition of the secretion of TNF-α ([2]; human PBMCs stimulated with IL-1β) | effect on cell viability [3]
1 | CN(C)[C@H]1CCN(C(=O)[C@H]2CCc3c(sc4ncnc(Nc5ccn6nccc6c5)c34)C2)C1 [Example 41, [(3S)-3-(Dimethylamino)pyrrolidin-1-yl][(7S)-4-(pyrazolo[1,5-a]pyridin-5-ylamino)-5,6,7,8-tetrahydro[1]benzothieno[2,3-d]pyrimidin-7-yl]methanone] | 7.96 | 7.00 to 8.00 | inhibition of the secretion of TNF-α; also recorded: inhibits the secretion of TNF-α in a dose dependent manner | no effect
2 | COc1cn2nccc2cc1Nc1ncnc2sc3c(c12)CC[C@H](C(=O)N1CC(N(C)C)C1)C3 [Example 102, [3-(Dimethylamino)azetidin-1-yl](7S)-4-[(6-methoxypyrazolo[1,5-a]pyridin-5-yl)amino]-5,6,7,8-tetrahydro[1]benzothieno[2,3-d]pyrimidin-7-ylmethanone] | 8.70 | 7.00 to 8.00 |  | 
3 | COc1cn2nccc2cc1Nc1ncnc2sc3c(c12)CC[C@H](C(=O)N(C)CCO)C3 [Example 103, (7S)—N-(2-Hydroxyethyl)-4-[(6-methoxypyrazolo [1,5-a]pyridin-5-yl)amino]-N-methyl-5,6,7,8-tetrahydro[1]benzothieno[2,3-d]pyrimidine-7-carboxamide] | 8.52 | 8.00 to 9.00 |  | 
4 | COCCN(C)C(=O)[C@H]1CCc2c(sc3ncnc(Nc4cc5ccnn5cc4OC)c23)C1 [Example 104, (7S)—N-(2-Methoxyethyl)-4-[(6-methoxypyrazolo[1,5-a]pyridin-5-yl)amino]-N-methyl-5,6,7,8-tetrahydro[1]benzothieno[2,3-d]pyrimidine-7-carboxamide] | 9.00 | 8.00 to 9.00 |  | 
5 | COc1cn2nccc2cc1Nc1ncnc2sc3c(c12)CC[C@H](C(=O)N1CC[C@@H](N(C)C)C1)C3 [Example 106, [(3R)-3-(Dimethylamino)pyrrolidin-1-yl](7S)-4-[(6-methoxypyrazolo[1,5-a]pyridin-5-yl)amino]-5,6,7,8-tetrahydro[1]benzothieno[2,3-d]pyrimidin-7-ylmethanone] | > 9.00 | 8.00 to 9.00 |  | 
6 | COc1cn2nccc2cc1Nc1ncnc2sc3c(c12)CC[C@H](C(=O)N1CCN(C)CC1)C3 [Example 113, (7S)-4-[(6-Methoxypyrazolo[1,5-a]pyridin-5-yl)amino]-5,6,7,8-tetrahydro[1]benzothieno[2,3-d]pyrimidin-7-yl(4-methylpiperazin-1-yl)methanone] | 9.00 | 7.00 to 8.00 |  | 
7 | COc1cn2nccc2cc1Nc1ncnc2sc3c(c12)CC[C@H](C(=O)N1CCOCC1)C3 [Example 116, (7S)-4-[(6-Methoxypyrazolo[1,5-a]pyridin-5-yl)amino]-5,6,7,8-tetrahydro[1]benzothieno[2,3-d]pyrimidin-7-yl(morpholin-4-yl)methanone] | 9.00 | 7.00 to 8.00 |  | 
8 | COc1cn2nccc2cc1Nc1ncnc2sc3c(c12)CC[C@H](C(=O)N1CCOC[C@@H]1C)C3 [Example 125, (7S)-4-[(6-Methoxypyrazolo[1,5-a]pyridin-5-yl)amino]-5,6,7,8-tetrahydro[1]benzothieno[2,3-d]pyrimidin-7-yl[(3S)-3-methylmorpholin-4-yl]methanone] | 9.00 | ≤ 7.00 |  | 

From US10487092B2, “Pyrazolopyridinamines as MKNK1 and MKNK2 inhibitors” (BAYER PHARMA AKTIENGESELLSCHAFT, priority 2014, dated 2019)
